Laboratory results from patent US20230027066A1 (Urovant Sciences GmbH, priority 2019, published 2023).
Where “and” joins values, the source holds several entries; their conditions need not be identical. Equal entries are not always repeated.

Test: Phase 1 ABPM study, ambulatory blood pressure and heart rate in OAB subjects, 28 days
Type: in vivo, human
Protocol: The objectives and endpoints were as described below. “Mean daytime” ABPM endpoints are calculated as the mean of all valid ABPM readings while the subject was awake during the 24-hour monitoring session. “Mean 24 hr” ABPM endpoints are calculated as the mean of all valid ABPM readings during the 24 hr monitoring session.
For the analysis of the ABPM endpoints (CFB to Day 29 of systolic and diastolic blood pressure, and heart rate), a generalized linear model (GLM) was used. […] The analysis model for each efficacy endpoint included terms for treatment, age group (≤55 vs >55 years), sex (Male vs Female), and pre-existing hypertension (Yes vs No), and baseline score.
Primary inferences were drawn from treatment differences for the CFB at Day 29 from the GLM. […] To test the primary hypothesis in Section 85, the upper limit of the two-sided 90% confidence interval was compared to 3.5, and the null hypothesis was rejected if the upper limit was strictly less than 3.5.
The 24-mean ambulatory baseline for systolic and diastolic blood pressure, and heart rate was the arithmetic mean of all valid measurements between the time of cuff-fitting on Day −1 to cuff-removal on Day 1. The 24-hour mean at Day 29 was arithmetic mean of all valid measurements between the time of cuff-fitting on Day 28 to cuff removal on Day 29.
The maximum SBP, DBP and HR in the tmax window at baseline was the maximum of the hourly means of valid measurements from 0.5 to 6.5 hours after the time of cuff fitting on Day −1. On Day 28, the maximum SBP, DBP and HR in the tmax window was the maximum of the hourly means of valid measurements from 0.5 to 6.5 hours after dose.
The mean daytime ambulatory baseline for systolic and diastolic blood pressure, and heart rate was the arithmetic mean of all measurements taken during the time interval in which the subject was awake. The same definition was applied to Day 29 measurements.

[1] = vibegron 75 mg/day, 4 weeks, full analysis set

O=C(Nc1ccc(C[C@@H]2CC[C@H]([C@H](O)c3ccccc3)N2)cc1)[C@@H]1CCc2nccc(=O)n21 [Vibegron, (6S)-N-[4-[[(2S,5R)−5-[(R)-hydroxy(phenyl)methyl]pyrrolidin−2-yl]methyl]phenyl]−4-oxo−7,8-dihydro−6H-pyrrolo[1,2-a]pyrimidine−6-carboxamide]
ABPM Max (0.5-6.5 h) DBP Change from Baseline to Day 28, LSMean (75 mg, FAS): 0.63 mmHg | ABPM Max (0.5-6.5 h) DBP Change from Baseline to Day 28, Treatment Difference Vibegron-Placebo (75 mg, FAS): 1.16 mmHg | ABPM Max (0.5-6.5 h) HR Change from Baseline to Day 28, LSMean (75 mg, FAS): 1.76 bpm | ABPM Max (0.5-6.5 h) HR Change from Baseline to Day 28, Treatment Difference Vibegron-Placebo (75 mg, FAS): 1.48 bpm | ABPM Max (0.5-6.5 h) SBP Change from Baseline to Day 28, LSMean (75 mg, FAS): 1.96 mmHg | ABPM Max (0.5-6.5 h) SBP Change from Baseline to Day 28, Treatment Difference Vibegron-Placebo (75 mg, FAS): 1.67 mmHg | ABPM Mean 24 H DBP Change from Baseline to Day 28, LSMean (75 mg, FAS): 0.51 mmHg | ABPM Mean 24 H DBP Change from Baseline to Day 28, Treatment Difference Vibegron-Placebo (75 mg, FAS): −0.19 mmHg | ABPM Mean 24 H HR Change from Baseline to Day 28, LSMean (75 mg, FAS): 0.80 bpm | ABPM Mean 24 H HR Change from Baseline to Day 28, Treatment Difference Vibegron-Placebo (75 mg, FAS): 0.96 bpm | ABPM Mean 24 H SBP Change from Baseline to Day 28, LSMean (75 mg, FAS): 0.60 mmHg | ABPM Mean 24 H SBP Change from Baseline to Day 28, Treatment Difference Vibegron-Placebo (75 mg, FAS): 0.57 mmHg | ABPM Mean Daytime DBP Change from Baseline to Day 28, LSMean (75 mg, FAS): 0.50 mmHg | ABPM Mean Daytime DBP Change from Baseline to Day 28, Treatment Difference Vibegron-Placebo (75 mg, FAS): −0.04 mmHg | ABPM Mean Daytime HR Change from Baseline to Day 28, LSMean (75 mg, FAS): 1.08 bpm | ABPM Mean Daytime HR Change from Baseline to Day 28, Treatment Difference Vibegron-Placebo (75 mg, FAS): 0.88 bpm | Mean Daytime ABPM SBP Change from Baseline to Day 28, LSMean (75 mg, FAS): 0.82 mm Hg | Mean Daytime ABPM SBP Change from Baseline to Day 28, Treatment Difference Vibegron-Placebo (75 mg, FAS): 0.81 mm Hg | Change from Baseline to Day 28 for Maximum (0.5 to 6.5 hrs) ABPM SBP, LSMean (75 mg, PPS): 1.0 mm Hg | Change from Baseline to Day 28 for Maximum (0.5 to 6.5 hrs) ABPM SBP, Treatment Difference Vibegron-Placebo (75 mg, PPS): 1.05 mm Hg | Mean Daytime ABPM SBP Change from Baseline to Day 28, LSMean (75 mg, PPS): 0.19 mm Hg | Mean Daytime ABPM SBP Change from Baseline to Day 28, Treatment Difference Vibegron-Placebo (75 mg, PPS): 0.41 mm Hg | ABPM DBP Day 28 change from baseline ≥10 mmHg, subjects (Maximum (0.5-6.5 h), FAS): 9 (9.8) n (%) | ABPM HR Day 28 change from baseline ≥10 bpm, subjects (Maximum (0.5-6.5 h), FAS): 20 (21.7) n (%) | ABPM SBP Day 28 change from baseline ≥15 mmHg, subjects (Maximum (0.5-6.5 h), FAS): 6 (6.5) n (%) | ABPM DBP Day 28 change from baseline ≥10 mmHg, subjects (Mean 24-hour, FAS): 1 (1.0) n (%) | ABPM HR Day 28 change from baseline ≥10 bpm, subjects (Mean 24-hour, FAS): 3 (3.1) n (%) | ABPM SBP Day 28 change from baseline ≥15 mmHg, subjects (Mean 24-hour, FAS): 2 (2.1) n (%) | ABPM DBP Day 28 change from baseline ≥10 mmHg, subjects (Mean Daytime, FAS): 2 (2.1) n (%) | ABPM HR Day 28 change from baseline ≥10 bpm, subjects (Mean Daytime, FAS): 3 (3.1) n (%) | ABPM SBP Day 28 change from baseline ≥15 mmHg, subjects (Mean Daytime, FAS): 2 (2.1) n (%) | effects on blood pressure (overall conclusion of ABPM study) (vibegron 75 mg, 28 days): no clinically relevant effects on blood pressure | mean change of daytime ambulatory systolic blood pressure from baseline, difference from placebo (primary endpoint) (vibegron 75 mg, 28 days): less than 1 mm Hg | mean change from baseline in daytime ambulatory systolic blood pressure (vibegron 75 mg/day, 4-week treatment, full analysis set): 0.89 mmHg | mean change of 24-hour ambulatory diastolic blood pressure from baseline, lower than placebo by (vibegron 75 mg/day, 4 weeks): 0.19 mmHg | mean change of 24-hour ambulatory heart rate from baseline (vibegron 75 mg/day, 4 weeks): about 0.80 | mean change of 24-hour ambulatory heart rate from baseline, higher than placebo by (vibegron 75 mg/day, 4 weeks): 0.96 bpm | mean change of 24-hour ambulatory systolic blood pressure from baseline, higher than placebo by (vibegron 75 mg/day, 4 weeks): 0.57 mmHg | mean change of daytime ambulatory diastolic blood pressure from baseline, lower than placebo by (vibegron 75 mg/day, 4 weeks): 0.04 mmHg | mean change of daytime ambulatory heart rate from baseline (vibegron 75 mg/day, 4 weeks): about 1.08 bpm | mean change of daytime ambulatory heart rate from baseline, higher than placebo by (vibegron 75 mg/day, 4 weeks): 0.88 bpm | mean increase in 24-hour ambulatory diastolic blood pressure from baseline (vibegron 75 mg/day, 4 weeks): 0.51 mmHg | mean increase in 24-hour ambulatory systolic blood pressure from baseline (vibegron 75 mg/day, 4 weeks): 0.61 mmHg and 0.60 mmHg | mean change of daytime ambulatory systolic blood pressure from baseline, higher than placebo by [1]: 0.81 mmHg | mean daytime ambulatory systolic upper bound of the 90% confidence interval (Table 103) [1]: 1.11 mm Hg | mean daytime ambulatory systolic blood pressure, upper bound of 90% confidence interval of difference from placebo (vibegron 75 mg/day, 4 weeks, full analysis set (Table 101)): 2.49 mm Hg | mean change of daytime ambulatory systolic blood pressure from baseline, higher than placebo by (vibegron 75 mg/day, 4 weeks, per protocol set): 0.41 mmHg | mean daytime ambulatory systolic blood pressure, upper bound of 90% confidence interval of difference from placebo (vibegron 75 mg/day, 4 weeks, per protocol set (Table 102)): 2 mm Hg
